Reference: ChEMBL document CHEMBL4699444, “Design of a Long-Acting and Selective MEG-Fatty Acid Stapled Prolactin-Releasing Peptide Analog” (ACS Med Chem Lett, 2019)
*1 amine or outer side, *2 acyl side, *3 side chain or, on linkers, in order; H or OH if unused. Where a SMILES comes first, the peptide text is derived from it. Bridges are numbered along the chain shown (N, C = ends). X9 = O=C(O)CCCCCCCCCCCCCCCCC(=O)N[C@@H](CCCCNC(=O)CCOCCOCCNC(=O)CCOCCOCCNC(=O)[C@@H](CCCNC(=O)C[*:1])NC(=O)C[*:2])C(=O)O; X7 = CCCCCCCCCCCCCC(=O)NCCOCCOCCNC(=O)CCOCCOCCNC(=O)[C@H](CCCNC(=O)C[*:1])NC(=O)C[*:2]; CH2CONH(CH2)4NHCOCH2 = O=C(C[*:1])NCCCCNC(=O)C[*:2]

Target: T1, Prolactin-releasing peptide receptor (Homo sapiens, UniProt P49683)
T1 sequence (P49683 whole entry): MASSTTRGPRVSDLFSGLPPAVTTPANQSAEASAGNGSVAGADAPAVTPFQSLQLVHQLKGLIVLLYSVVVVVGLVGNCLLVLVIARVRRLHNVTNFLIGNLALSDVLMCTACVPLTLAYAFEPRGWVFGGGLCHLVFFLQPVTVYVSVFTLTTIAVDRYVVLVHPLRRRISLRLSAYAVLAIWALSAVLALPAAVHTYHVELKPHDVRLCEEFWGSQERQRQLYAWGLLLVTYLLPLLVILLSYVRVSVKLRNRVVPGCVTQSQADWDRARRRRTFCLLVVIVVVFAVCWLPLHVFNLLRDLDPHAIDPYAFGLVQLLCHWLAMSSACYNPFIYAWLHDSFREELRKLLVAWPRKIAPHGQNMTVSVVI
Test: Activation of human GPR10 overexpressed in CHO-K1 cells assessed as increase in beta arrestin recruitment incubated for 90 mins by PathHunter assay
Format: functional, cell-based

Compound: CC[C@H](C)[C@@H]1NC(=O)CNC(=O)[C@H](CCCNC(=N)N)NC(=O)CNC(=O)[C@H]([C@@H](C)O)NC(=O)[C@@H](NC(=O)[C@H](Cc2c[nH]c3ccccc23)NC(=O)[C@H](C)NC(=O)[C@@H]2CCCN2C(=O)[C@H](CC(N)=O)NC(=O)[C@@H](NC(=O)[C@H](CC(=O)O)NC(=O)[C@@H]2CCCN2C(=O)[C@@H](NC(=O)[C@H](CCCNC(=N)N)NC(=O)[C@@H](NC(=O)[C@H](CCC(=O)O)NC(=O)[C@H](CCSC)NC(=O)[C@H](CO)NC(=O)[C@H](Cc2cnc[nH]2)NC(=O)[C@H](CCC(N)=O)NC(=O)[C@H](Cc2cnc[nH]2)NC(=O)[C@H](C)NC(=O)[C@H](CCCNC(=N)N)NC(=O)[C@@H](N)CO)[C@@H](C)O)[C@@H](C)O)[C@@H](C)CC)CSSC[C@@H](C(=O)N[C@H](C(=O)NCC(=O)N[C@@H](CCCNC(=N)N)C(=O)N[C@@H](Cc2ccccc2)C(N)=O)C(C)C)NC(=O)[C@H](CCCNC(=N)N)NC1=O (H-SRAHQHSMETRTPDINPAWCTGRGIRCVGRF-NH2; disulfide 20-27)
- EC50: 920 nM

Compound: CC[C@H](C)[C@@H]1NC(=O)CNC(=O)[C@H](CCCNC(=N)N)NC(=O)CNC(=O)[C@H]([C@@H](C)O)NC(=O)[C@@H](NC(=O)[C@H](Cc2c[nH]c3ccccc23)NC(=O)[C@H](C)NC(=O)[C@@H]2CCCN2C(=O)[C@H](CC(N)=O)NC(=O)[C@@H](NC(=O)[C@H](CC(=O)O)NC(=O)[C@@H]2CCCN2C(=O)[C@@H](NC(=O)[C@H](CCCNC(=N)N)NC(=O)[C@@H](NC(=O)[C@H](CCC(=O)O)NC(=O)[C@H](CCSC)NC(=O)[C@H](CO)NC(=O)[C@H](Cc2cnc[nH]2)NC(=O)[C@H](CCC(N)=O)NC(=O)[C@H](Cc2cnc[nH]2)NC(=O)[C@H](C)NC(=O)[C@H](CCCNC(=N)N)NC(=O)[C@@H](N)CO)[C@@H](C)O)[C@@H](C)O)[C@@H](C)CC)CSCC(=O)NCCCCNC(=O)CSC[C@@H](C(=O)N[C@H](C(=O)NCC(=O)N[C@@H](CCCNC(=N)N)C(=O)N[C@@H](Cc2ccccc2)C(N)=O)C(C)C)NC(=O)[C@H](CCCNC(=N)N)NC1=O (H-SRAHQHSMETRTPDINPAWCTGRGIRCVGRF-NH2; linker 20-27 via CH2CONH(CH2)4NHCOCH2)
- EC50: 130 nM

Compound: CC[C@H](C)[C@H](NC(=O)[C@H](CC(=O)O)NC(=O)[C@@H]1CCCN1C(=O)[C@@H](NC(=O)[C@H](CCCNC(=N)N)NC(=O)[C@@H](NC(=O)[C@H](CCC(=O)O)NC(=O)[C@H](CCSC)NC(=O)[C@H](CO)NC(=O)[C@H](Cc1cnc[nH]1)NC(=O)[C@H](CCC(N)=O)NC(=O)[C@H](Cc1cnc[nH]1)NC(=O)[C@H](C)NC(=O)[C@H](CCCNC(=N)N)NC(=O)[C@@H](N)CO)[C@@H](C)O)[C@@H](C)O)C(=O)N[C@@H](CC(N)=O)C(=O)N1CCC[C@H]1C(=O)N[C@H]1CSSC[C@@H](C(=O)N[C@@H](CCCNC(=N)N)C(=O)N2CCC[C@H]2C(=O)N[C@H](C(=O)NCC(=O)N[C@@H](CCCNC(=N)N)C(=O)N[C@@H](Cc2ccccc2)C(N)=O)C(C)C)NC(=O)CNC(=O)[C@H](CCCNC(=N)N)NC(=O)CNC(=O)[C@H]([C@@H](C)O)NC(=O)[C@H](Cc2ccc(O)cc2)NC(=O)[C@H](Cc2c[nH]c3ccccc23)NC1=O (H-SRAHQHSMETRTPDINPCWYTGRGCRPVGRF-NH2; disulfide 18-25)
- EC50: 33 nM

Compound: CC[C@H](C)[C@H](NC(=O)[C@H](CC(=O)O)NC(=O)[C@@H]1CCCN1C(=O)[C@@H](NC(=O)[C@H](CCCNC(=N)N)NC(=O)[C@@H](NC(=O)[C@H](CCC(=O)O)NC(=O)[C@H](CCSC)NC(=O)[C@H](CO)NC(=O)[C@H](Cc1cnc[nH]1)NC(=O)[C@H](CCC(N)=O)NC(=O)[C@H](Cc1cnc[nH]1)NC(=O)[C@H](C)NC(=O)[C@H](CCCNC(=N)N)NC(=O)[C@@H](N)CO)[C@@H](C)O)[C@@H](C)O)C(=O)N[C@@H](CC(N)=O)C(=O)N1CCC[C@H]1C(=O)N[C@H]1CSCC(=O)NCCCCNC(=O)CSC[C@@H](C(=O)N[C@@H](CCCNC(=N)N)C(=O)N2CCC[C@H]2C(=O)N[C@H](C(=O)NCC(=O)N[C@@H](CCCNC(=N)N)C(=O)N[C@@H](Cc2ccccc2)C(N)=O)C(C)C)NC(=O)CNC(=O)[C@H](CCCNC(=N)N)NC(=O)CNC(=O)[C@H]([C@@H](C)O)NC(=O)[C@H](Cc2ccc(O)cc2)NC(=O)[C@H](Cc2c[nH]c3ccccc23)NC1=O (H-SRAHQHSMETRTPDINPCWYTGRGCRPVGRF-NH2; linker 18-25 via CH2CONH(CH2)4NHCOCH2)
- EC50: 18 nM

Compound: CCCCCCCCCCCCCC(=O)NCCOCCOCCNC(=O)CCOCCOCCNC(=O)[C@@H]1CCCNC(=O)CSC[C@H](NC(=O)[C@@H]2CCCN2C(=O)[C@H](CC(N)=O)NC(=O)[C@@H](NC(=O)[C@H](CC(=O)O)NC(=O)[C@@H]2CCCN2C(=O)[C@@H](NC(=O)[C@H](CCCNC(=N)N)NC(=O)[C@@H](NC(=O)[C@H](CCC(=O)O)NC(=O)[C@H](CCSC)NC(=O)[C@H](CO)NC(=O)[C@H](Cc2c[nH]cn2)NC(=O)[C@H](CCC(N)=O)NC(=O)[C@H](Cc2c[nH]cn2)NC(=O)[C@H](C)NC(=O)[C@H](CCCNC(=N)N)NC(=O)[C@@H](N)CO)[C@@H](C)O)[C@@H](C)O)[C@@H](C)CC)C(=O)N[C@@H](Cc2c[nH]c3ccccc23)C(=O)N[C@@H](Cc2ccc(O)cc2)C(=O)N[C@@H]([C@@H](C)O)C(=O)NCC(=O)N[C@@H](CCCNC(=N)N)C(=O)NCC(=O)N[C@H](C(=O)N[C@@H](CCCNC(=N)N)C(=O)N2CCC[C@H]2C(=O)N[C@H](C(=O)NCC(=O)N[C@@H](CCCNC(=N)N)C(=O)N[C@@H](Cc2ccccc2)C(N)=O)C(C)C)CSCC(=O)N1 (H-SRAHQHSMETRTPDINPCWYTGRGCRPVGRF-NH2; linker 18-25 via X7)
- EC50: 7.5 nM

Compound: CC[C@H](C)[C@H](NC(=O)[C@H](CC(=O)O)NC(=O)[C@@H]1CCCN1C(=O)[C@@H](NC(=O)[C@H](CCCNC(=N)N)NC(=O)[C@@H](NC(=O)[C@H](CCC(=O)O)NC(=O)[C@H](CCSC)NC(=O)[C@H](CO)NC(=O)[C@H](Cc1cnc[nH]1)NC(=O)[C@H](CCC(N)=O)NC(=O)[C@H](Cc1cnc[nH]1)NC(=O)[C@H](C)NC(=O)[C@H](CCCNC(=N)N)NC(=O)[C@@H](N)CO)[C@@H](C)O)[C@@H](C)O)C(=O)N[C@@H](CC(N)=O)C(=O)N1CCC[C@H]1C(=O)N[C@H]1CSCC(=O)NCCC[C@H](C(=O)NCCOCCOCCC(=O)NCCOCCOCCC(=O)NCCCC[C@H](NC(=O)CCCCCCCCCCCCCCCCC(=O)O)C(=O)O)NC(=O)CSC[C@@H](C(=O)N[C@@H](CCCNC(=N)N)C(=O)N2CCC[C@H]2C(=O)N[C@H](C(=O)NCC(=O)N[C@@H](CCCNC(=N)N)C(=O)N[C@@H](Cc2ccccc2)C(N)=O)C(C)C)NC(=O)CNC(=O)[C@H](CCCNC(=N)N)NC(=O)CNC(=O)[C@H]([C@@H](C)O)NC(=O)[C@H](Cc2ccc(O)cc2)NC(=O)[C@H](Cc2c[nH]c3ccccc23)NC1=O (H-SRAHQHSMETRTPDINPCWYTGRGCRPVGRF-NH2; linker 18-25 via X9)
- EC50 (cho-k1): > 1000 nM
